Measured values from ChEMBL document CHEMBL5126582, “Discovery of (2-(pyrrolidin-1-yl)thieno[3,2-d]pyrimidin-4-yl)(3,4,5-trimethoxyphenyl)methanone as a novel potent tubulin depolymerizing and vascular disrupting agent” (Eur J Med Chem, 2022).
The source made the active and inactive calls. No cut-off for these calls is given here.

Key:
Tubulin = Tubulin (Sus scrofa, UniProt P02554+P02550); assay: Inhibition of pig brain tubulin polymerization incubated for 19 mins by spectrophotometric method
HeLa [1] = assay: Induction of mitochondrial membrane potential alteration in human HeLa cells assessed as viable cells at 1 uM measured after 48 hrs by JC1 staining-based flow cytometry analysis (reference value: 90.9%); format: functional; conditions: read-out: Activity
[2] = Metabolic stability in rat liver microsomes assessed as half life incubated for 5 mins in presence of NADPH by HPLC analysis; format: ADME, Microsome
HUVEC = assay: Antivascular activity against human HUVEC cells assessed as inhibition of tube formation at 500 nM incubated for 3 hrs by matrigel matrix based microscopic analysis; format: functional, cell-based
HeLa [3] = assay: Induction of mitochondrial membrane potential alteration in human HeLa cells assessed as late apoptotic cells at 750 nM measured after 48 hrs by JC1 staining-based flow cytometry analysis (reference value: 0.009%); format: functional
HeLa [4] = assay: Induction of apoptosis in human HeLa cells assessed as early apoptotic cells at 500 nM incubated for 72 hrs by annexin V FITC and propidium iodide staining based flow cytometry analysis (reference value: 2.36%); format: functional
HeLa [5] = assay: Induction of mitochondrial membrane potential alteration in human HeLa cells assessed as viable cells at 750 nM measured after 48 hrs by JC1 staining-based flow cytometry analysis (Rvb =90.9 %); format: functional; conditions: read-out: Activity
A549 = assay: cells; conditions: Homo sapiens, A549, 48 h
Description: Antiproliferative activity against human A549 cells assessed as reduction in cell viability incubated for 48 hrs by MTS assay

HeLa [6] = assay: Induction of apoptosis in human HeLa cells assessed as viable cells at 1 uM incubated for 48 hrs by annexin V FITC and propidium iodide staining based flow cytometry analysis (reference value: 85.5%); format: functional; conditions: read-out: Activity
HeLa [7] = assay: Induction of apoptosis in human HeLa cells assessed as viable cells at 500 nM incubated for 48 hrs by annexin V FITC and propidium iodide staining based flow cytometry analysis (reference value: 85.5%); format: functional; conditions: read-out: Activity
HeLa [8] = assay: Induction of apoptosis in human HeLa cells assessed as necrotic cells at 1 uM incubated for 24 hrs by annexin V FITC and propidium iodide staining based flow cytometry analysis (reference value: 1.14 %); format: functional
HeLa [9] = assay: Induction of apoptosis in human HeLa cells assessed as viable cells at 100 nM incubated for 72 hrs by annexin V FITC and propidium iodide staining based flow cytometry analysis (reference value: 90.1%); format: functional; conditions: read-out: Activity
HeLa [10] = assay: Induction of apoptosis in human HeLa cells assessed as early apoptotic cells at 500 nM incubated for 24 hrs by annexin V FITC and propidium iodide staining based flow cytometry analysis (reference value: 0.12%); format: functional
HeLa [11] = assay: Induction of apoptosis in human HeLa cells assessed as viable cells at 1 uM incubated for 72 hrs by annexin V FITC and propidium iodide staining based flow cytometry analysis (reference value: 90.1%); format: functional; conditions: read-out: Activity
HeLa [12] = assay: Induction of apoptosis in human HeLa cells assessed as necrotic cells at 500 nM incubated for 48 hrs by annexin V FITC and propidium iodide staining based flow cytometry analysis (reference value: 1.85 %); format: functional
HeLa [13] = assay: Induction of apoptosis in human HeLa cells assessed as necrotic cells at 1 uM incubated for 72 hrs by annexin V FITC and propidium iodide staining based flow cytometry analysis (reference value: 2.88 %); format: functional
HeLa [14] = assay: Induction of apoptosis in human HeLa cells assessed as early apoptotic cells at 100 nM incubated for 48 hrs by annexin V FITC and propidium iodide staining based flow cytometry analysis (reference value: 6.01%); format: functional
HeLa [15] = assay: Induction of mitochondrial membrane potential alteration in human HeLa cells assessed as early apoptotic cells at 1 uM measured after 48 hrs by JC1 staining-based flow cytometry analysis (reference value: 9.07 %); format: functional
HeLa [16] = assay: Induction of mitochondrial membrane potential alteration in human HeLa cells assessed as necrotic cells at 1 uM measured after 48 hrs by JC1 staining-based flow cytometry analysis (reference value: 0%); format: functional
HeLa [17] = assay: Induction of mitochondrial membrane potential alteration in human HeLa cells assessed as necrotic cells at 750 nM measured after 48 hrs by JC1 staining-based flow cytometry analysis (reference value: 0%); format: functional
HeLa [18] = assay: Induction of apoptosis in human HeLa cells assessed as early apoptotic cells at 1 uM incubated for 24 hrs by annexin V FITC and propidium iodide staining based flow cytometry analysis (reference value: 0.12%); format: functional
HeLa [19] = assay: Induction of apoptosis in human HeLa cells assessed as early apoptotic cells at 100 nM incubated for 72 hrs by annexin V FITC and propidium iodide staining based flow cytometry analysis (reference value: 2.36%); format: functional
HeLa [20] = assay: Induction of mitochondrial membrane potential alteration in human HeLa cells assessed as necrotic cells at 100 nM measured after 48 hrs by JC1 staining-based flow cytometry analysis (reference value: 0%); format: functional
HeLa [21] = assay: Induction of apoptosis in human HeLa cells assessed as necrotic cells at 100 nM incubated for 72 hrs by annexin V FITC and propidium iodide staining based flow cytometry analysis (reference value: 2.88 %); format: functional
HeLa [22] = assay: Inhibition of colony formation in human HeLa cells assessed as reduction in colony formation at 250 nM incubated for 24 hrs followed by culturing in fresh compound-free medium for 10 days by crystal violet staining based assay; format: functional, cell-based
HeLa [23] = assay: Induction of cell cycle arrest in human HeLa cells assessed as accumulation of cells at G2/M phase at 100 to 2000 nM incubated for 24 to 48 hrs by […] flow cytometry; format: functional; conditions: dose 100-2000 nM, time 24-48 hrs, DDE = dose-dependent effect
HeLa [24] = assay: Induction of apoptosis in human HeLa cells assessed as late apoptotic cells at 500 nM incubated for 24 hrs by annexin V FITC and propidium iodide staining based flow cytometry analysis (reference value: 0.05%); format: functional
HeLa [25] = assay: Induction of apoptosis in human HeLa cells assessed as late apoptotic cells at 750 nM incubated for 24 hrs by annexin V FITC and propidium iodide staining based flow cytometry analysis (reference value: 0.05%); format: functional
HeLa [26] = assay: Induction of apoptosis in human HeLa cells assessed as late apoptotic cells at 1 uM incubated for 72 hrs by annexin V FITC and propidium iodide staining based flow cytometry analysis (reference value: 4.70%); format: functional
Tubulin (Homo sapiens) = Tubulin (Homo sapiens) (UniProt P68371+Q9H4B7+P0DPH7+P68366+Q13509+Q71U36+P04350+Q3ZCM7+P07437+P68363+Q9BQE3+Q6PEY2+Q13885+Q9BVA1+Q9BUF5); assay: Disruption of microtubule network in human HeLa cells at 100 to 500 nM incubated for 3 hrs by laser confocal microscopy analysis; format: cell-based; conditions: dose 100-500 nM, DDE = dose-dependent effect
HL-60 = assay: Antiproliferative activity against human HL-60 cells assessed as reduction in cell viability incubated for 48 hrs by MTS assay; format: functional, cell-based; conditions: HL-60, 48 h
HeLa [27] = assay: Antiproliferative activity against human HeLa cells assessed as reduction in cell viability incubated for 48 hrs by MTS assay; format: functional, cell-based
HeLa [28] = assay: Induction of apoptosis in human HeLa cells assessed as late apoptotic cells at 100 nM incubated for 48 hrs by annexin V FITC and propidium iodide staining based flow cytometry analysis (reference value: 8.87%); format: functional

IC50 (Tubulin): 1600 nM
half-life [2]: 17 min
IC50 (A549): 14 nM
Activity (Tubulin (Homo sapiens)): Dde
IC50 (HL-60): 8 nM
IC50 (HeLa [27]): 3 nM
Compound: COc1cc(C(=O)c2nc(N3CCCC3)nc3ccsc23)cc(OC)c1OC
viability at 1 µM (HeLa [1]): 44.6%
Activity (HUVEC): Active
Activity (HeLa [3]): 0.077%
Activity (HeLa [4]): 0.734%
viability at 0.75 µM (HeLa [5]): 56.7%
viability at 1 µM (HeLa [6]): 0.77%
viability at 0.5 µM (HeLa [7]): 78.1%
Activity (HeLa [8]): 4.52%
viability at 0.1 µM (HeLa [9]): 85.1%
Activity (HeLa [10]): 6.1%
viability at 1 µM (HeLa [11]): 27.9%
Activity (HeLa [12]): 8.84%
Activity (HeLa [13]): 41.9%
Activity (HeLa [14]): 2.8%
Activity (HeLa [15]): 55.3%
Activity (HeLa [16]): 0.053%
Activity (HeLa [17]): 0.019%
Activity (HeLa [18]): 7.23%
Activity (HeLa [19]): 2.65%
Activity (HeLa [20]): 0.02%
Activity (HeLa [21]): 5.32%
inhibition (HeLa [22]): Active
Activity (HeLa [23]): Dde
Activity (HeLa [24]): 6.42%
Activity (HeLa [25]): 7.06%
Activity (HeLa [26]): 24.7%
Activity (HeLa [28]): 5.18%
